Assay results as given in publication PMC8009417, “Selective killing of homologous recombination-deficient cancer cell lines by inhibitors of the RPA:RAD52 protein-protein interaction” (PLoS ONE, 2021).

Experiments:
[1] = target: T1, RPA:RAD52 protein-protein interaction (Homo sapiens, UniProt P43351); assay: FluorIA (Fluorescence-based protein-protein Interaction Assay), GFP-RAD52 binding to plate-coated RPA; conditions: polynomial curve fitting; 15 dose concentrations 0.03–500 μM, triplicate; RAD52(1–303) positive control; read-out: EC50 in FluorIA (inhibition of RPA:RAD52 PPI)
T1 construct: made in house
T1 sequence (P43351 1-418): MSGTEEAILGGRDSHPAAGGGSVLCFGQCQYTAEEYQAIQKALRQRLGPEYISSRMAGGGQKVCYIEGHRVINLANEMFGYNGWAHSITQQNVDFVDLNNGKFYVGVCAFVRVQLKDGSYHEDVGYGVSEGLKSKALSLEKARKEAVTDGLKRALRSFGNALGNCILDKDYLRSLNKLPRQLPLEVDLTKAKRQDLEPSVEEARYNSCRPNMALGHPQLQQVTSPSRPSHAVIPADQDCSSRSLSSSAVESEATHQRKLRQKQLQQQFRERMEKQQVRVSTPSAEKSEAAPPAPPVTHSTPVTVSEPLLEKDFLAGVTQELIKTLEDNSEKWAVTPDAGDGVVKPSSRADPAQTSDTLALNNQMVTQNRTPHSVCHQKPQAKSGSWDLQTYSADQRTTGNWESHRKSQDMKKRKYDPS
Description: A newly developed fluorescence-based assay for detecting protein-protein interactions, FluorIA was used to identify SMIs of RPA:RAD52 PPI. The detailed FluorIA protocol is published elsewhere. Briefly, 384-well plates (Thermo Fisher Scientific, #460518) were coated with purified RPA. Then compounds or controls were added and incubated with freshly prepared GFP-RAD52. RAD52(1–303) without GFP-tag and buffer (including DMSO) only were used as controls. Then the relative fluorescence (RFU) was measured using a POLARstar OPTIMA plate reader (BMG LABTECH) on emptied plates at an excitation/emission (for eGFP) of 485/520 nm at 2500 gain setting.
Three chemical libraries the 355-member SelleckChem Kinase Inhibitor Library, the 1200-member Prestwick Chemical Library, and the 100,000-member ChemBridge library were used for the screening. The screening of the SelleckChem Kinase Inhibitor and the Prestwick libraries were performed at 10 and 100 μM each in duplicate. The screening of the ChemBridge library was conducted at 100 μM. […] The statistical criteria for a hit were fully described in Al-Mugotir et al.. Each hit was verified in triplicate at 10 and 100 μM.
The in vitro EC50 value of each hit was determined with FluorIA. The chemicals were serially diluted by two-fold increments from 0.030 to 500 μM and analyzed in triplicate with FluorIA. RAD52(1–303) was used as a positive control and buffer with DMSO was used as a negative control. Candidate SMIs with strong inhibition were purchased, and a 1D NMR analysis was carried out to verify their identities. The eleven candidates SMIs were purchased as follows: 5137134, 5246481, 52614577,5316833, 5373030, and 7623574 from Chembridge HIT2LEAD, 5989499 from Wuxi lab network, 5375405 from Aronis, quinacrine and mitoxantrone from Sigma Aldrich, and doxorubicin from LC labs. D-I03 was purchased from Molport. Their effectiveness in inhibiting the RPA:RAD52 PPI was confirmed after purchase with the FluorIA as described above (S1 Fig).
Supplementary file pone.0248941.s001.tif: S1 Fig Validation experiments of eleven hits with the FlourIA. Sixteen treatment concentrations were used (0.030–500 μM) increasing by two-fold increments of each molecule/drug obtained as a hit in HTS FluorIA. RAD52(1–303) without GFP-tag and buffer (including DMSO) only were used as controls. Percent inhibition was calculated as follows: [(RFUSMI—RFURAD52(1–303)) / (RFUDMSO—RFURAD52(1–303))]*100, where RFU is relative fluorescence unit. An average of triplicate measurements was used. The treatment points for quinacrine and doxorubicin beyond 125 μM were showing characteristics of aggregation and were not used. (TIF) Click here for additional data file.

γH2AX (DNA damage) = assay: Simple Western of γH2AX (DNA damage) after treatment; assay type: cell-based, human; conditions: 72 h at doses near EC50
Description: Fig 6 The effect of mitoxantrone treatment on RAD52 levels and DNA damage. […] Data and ANOVA statistical analyses are described in the material and methods section. Significance statistics are shown with single, double, or triple asterisks representing P<0.05, P<0.005, or P<0.0005, respectively.
For western analysis, each cell line was grown and treated as described above. Protein levels were measured in lysates by size separation with a ProteinSimple PeggySue instrument following the manufacturer’s recommendations. Lysates were prepared using the NanoPro Cell Lysis Kit with Bicine/CHAPS (ProteinSimple CBS403) at 0.75 mg/mL concentration when mixed with master mix (containing SDS, DTT and fluorescent molecular weight markers; ProteinSimple PS-FL01-8) and heated for 5 min at 95°C. Electrophoretic nanocapillary size separation of proteins was performed using default settings. After separation, UV light cross-linked proteins to the capillary wall. Capillaries were then washed and incubated with primary antibodies, washed, and incubated with anti-rabbit secondary antibody conjugated with HRP (ProteinSimple DM-001). Finally, luminol and peroxide were applied to generate chemoluminescence which was imaged by a CCD camera. Primary antibody concentrations were optimized and were diluted as follows: Abcam anti-RAD52 antibody (ab18263, diluted 1:25), R&D Systems Human Phospho-histone H2AX (S139) antibody (AF2288, diluted 1:100), and Cell Signalling Technology Pan-Actin antibody (#4968, diluted 1:2500).
The Simple western data were processed and analyzed with ProteinSimple Compass software. Peak areas were calculated using dropped lines. Each lysate was analyzed for RAD52 and γH2AX levels three times and for Actin two times (see S2 Fig). Replicate peak areas for RAD52 and γH2AX were averaged, divided by the average Actin peak area of that sample, multiplied by 100 and graphed using SigmaPlot 7.0.

In the case of `O=C1c2c(O)ccc(O)c2C(=O)c2c(NCCNCCO)ccc(NCCNCCO)c21` [Mitoxantrone, mitoxantrone], the EC50 [1] is reported as 29.7 µM, the “DNA damage (γH2AX) from treatment” value (γH2AX (DNA damage); HCC1937 cell lines) is reported as “low to negligible levels of DNA damage” and the “DNA damage (γH2AX) from treatment” value (γH2AX (DNA damage); PE01 cells) is reported as “substantial increase in DNA damage”. For the same compound, the “DNA damage (γH2AX) from treatment” value (γH2AX (DNA damage); UWB1 cell lines) was “low to negligible levels of DNA damage”.
